Literature values in patent publication US20040157932A1, “Supplements and foods comprising oleylethanolamide” (Natural ASA,, priority 2002, published 2004).
Blank lines part the entries; values can stand above or below the compound they belong to.

How the values were obtained:
[1] = rats
[2] = tested on: human melanoma, colorectal and breast cancer cells; settings: in vitro
[3] = tested on: rat mammary tumorigenesis; settings: administration of CLA
[4] = CLA in animal feed, birds and mammals
[5] = diet with 0.5 percent CLA
[6] = tested on: CD-4 and CD-8 lymphocyte subpopulations; white blood cells

Compound: CCCCCCC(C)OC(=O)CC(=O)CBr (stereo not shown) [2-octyl y-gamma.-bromoacetoacetate]
FAAH inhibition (FAAH): potent

effect on the nervous system ([1]; in contrast to currently available weight loss drugs): not effecting the nervous system
activation of cannabinoid receptors (cannabinoid receptors): does not activate
Compound: CCCCCCCC/C=C\CCCCCCCC(=O)NCCO [OEA, oleylethanolamide]
desire for food ([1]; OEA in diet): reduced desire for food
weight gain ([1]; OEA in diet): decreased weight gain

Compound: conjugated linoleic acid [CLA]
cytotoxicity against human melanoma, colorectal and breast cancer cells [2]: strong cytotoxic agent
rat mammary tumorigenesis [3]: inhibits
efficiency of feed conversion [4]: increased the efficiency of feed conversion
body weight [5]: no increase
fat content ([5]; pigs, mice, humans): significant drop
protein mass ([5]; pigs, mice, humans): concomitant increase
preserving white blood cells ([6]; CLA in concentrations of about 0.1 to 1.0 percent): effective adjuvant
CD-4 and CD-8 lymphocyte subpopulations ([6]; oral or parenteral administration, free acid or salt form): elevation
